Data on 14 compounds can be found in patent publication US7816331B2, “Substituted indazole-O-glucosides” (Janssen Pharmaceutica NV, priority 2003, dated 2010).

One assay deals with T1, human SGLT1 (Homo sapiens, UniProt P13866).
T1 construct: expressed in transfected cells
T1 sequence (P13866 1-664): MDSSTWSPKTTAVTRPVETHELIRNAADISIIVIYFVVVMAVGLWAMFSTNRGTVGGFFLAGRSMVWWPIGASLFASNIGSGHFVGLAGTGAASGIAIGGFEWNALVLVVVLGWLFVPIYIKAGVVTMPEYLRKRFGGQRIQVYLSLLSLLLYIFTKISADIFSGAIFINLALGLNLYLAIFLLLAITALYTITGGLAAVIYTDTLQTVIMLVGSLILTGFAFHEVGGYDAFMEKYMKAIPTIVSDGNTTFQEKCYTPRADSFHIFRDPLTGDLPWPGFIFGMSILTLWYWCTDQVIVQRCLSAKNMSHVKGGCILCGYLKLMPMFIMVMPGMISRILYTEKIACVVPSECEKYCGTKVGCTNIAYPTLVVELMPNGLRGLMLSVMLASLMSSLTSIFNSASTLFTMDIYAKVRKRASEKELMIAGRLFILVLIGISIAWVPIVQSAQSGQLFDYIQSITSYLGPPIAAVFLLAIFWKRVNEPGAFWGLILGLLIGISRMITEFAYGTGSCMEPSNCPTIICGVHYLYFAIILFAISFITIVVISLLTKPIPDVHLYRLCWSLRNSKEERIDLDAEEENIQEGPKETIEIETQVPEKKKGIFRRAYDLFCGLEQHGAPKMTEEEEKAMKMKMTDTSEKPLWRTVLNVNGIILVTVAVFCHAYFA
Description: Cell-based assay for sodium-dependent glucose transport (14C-AMG uptake), CHOK-SGLT1. As to conditions: 10 uM compound, CHO-K1 cells stably expressing human SGLT1, Na-dependent 14C-AMG uptake; for inhibition at 10 µM: read-out: CHOK-SGLT1 % Inh (10 uM). Here is the method:
(§1) Cloning of the human SGLT1 and human SGLT2 cDNAs and construction of the mammalian expression vector: The human SGLT1 cDNA (Genbank M24847) was cloned from human small intestine. Human SGLT2 cDNA (Genbank M95549) was cloned from human kidney. Both full cDNAs were subcloned into pcDNA and sequenced to verify the integrity of the construct. Generation of CHO-K1 cells stably expressing human SGLT1 or human SGLT2: Transfection of CHO-K1 cells was performed using DMRIE-C reagent (Life Technologies, Gaithersburg, Md.). Transfectants were then selected in the presence of the antibiotic G418 (Gibco-BRL, Grand Island, N.Y.) at 400 μg/ml. Individual clones were then characterized using the functional assay described below. Cell-based assay for sodium-dependent glucose transport: Cell lines stably expressing human SGLT1 or SGLT2 were then used for functional analysis of Na^+-dependent glucose uptake. Briefly, cells were plated at a density of 65,000 cells per well in a 96-well plate and allowed to grow for 48 hours. Cells were subsequently washed one time with Assay Buffer (50 mM HEPES pH 7.4, 20 mM Tris, 5 mM KCl, 1 mM MgCl2, 1 mM CaCl2 and 137 mM NaCl) and treated with compound in the absence or presence of NaCl for 15 minutes. Cells were then labeled with ^14C-α-methylglucopyranoside (AMG, Sigma, St. Louis, Mo.), a non-metabolizable glucose analog specific for sodium-dependent glucose transporters as previously described (Peng, H. and Lever J. E. Post-transcriptional regulation of Na^+/glucose cotransporter (SGLT1) gene expression in LLC-PK1 cells. J Biol Chem 1995; 270:20536-20542.). After 2 hours the labelled cells were washed three times with ice-cold PBS. After aspiration, cells were solubilized using Microscint 20 (Packard, Meriden, Conn.) and Na-dependent ^14C-AMG uptake was quantified by measuring radioactivity. Plates were counted in a TopCount (Packard, Meriden, Conn.). Results are reported as the % inhibition or IC50 value from a representative experiment. Variability for the functional assay was typically within 20%.

Another assay has as its target T2, human SGLT2 (Homo sapiens, UniProt P31639).
T2 construct: expressed in transfected cells
T2 sequence (P31639 1-672): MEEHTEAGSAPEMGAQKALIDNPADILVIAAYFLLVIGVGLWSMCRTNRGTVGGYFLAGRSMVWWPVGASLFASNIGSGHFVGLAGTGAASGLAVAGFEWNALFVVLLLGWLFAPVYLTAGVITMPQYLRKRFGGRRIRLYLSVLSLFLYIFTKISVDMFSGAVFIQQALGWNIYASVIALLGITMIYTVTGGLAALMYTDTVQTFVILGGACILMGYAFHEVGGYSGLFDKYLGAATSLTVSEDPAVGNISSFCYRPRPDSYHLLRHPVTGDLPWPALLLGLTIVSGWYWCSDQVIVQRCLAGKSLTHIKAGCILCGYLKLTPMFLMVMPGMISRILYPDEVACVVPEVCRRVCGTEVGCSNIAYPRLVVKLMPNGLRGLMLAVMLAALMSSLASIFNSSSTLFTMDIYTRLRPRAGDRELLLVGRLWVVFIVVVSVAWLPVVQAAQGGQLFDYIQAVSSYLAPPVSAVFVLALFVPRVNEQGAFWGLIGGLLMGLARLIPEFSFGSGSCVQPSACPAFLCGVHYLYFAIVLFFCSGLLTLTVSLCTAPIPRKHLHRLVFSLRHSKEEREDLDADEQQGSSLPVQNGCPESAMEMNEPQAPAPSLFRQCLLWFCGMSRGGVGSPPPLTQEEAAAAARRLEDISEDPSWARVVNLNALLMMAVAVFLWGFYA
Description: Cell-based assay for sodium-dependent glucose transport (14C-AMG uptake), CHOK-SGLT2. As to conditions: for inhibition at 10 µM: CHO-K1, read-out: CHOK-SGLT2 % Inh. @ 10 μM; for IC50: CHO-K1 cells stably expressing human SGLT2, Na-dependent 14C-AMG uptake, read-out: CHOK-SGLT2 IC50 (uM) ± SEM. As for the experimental part: as §1, with “experiment.” for “experiment. Variability for the functional assay was typically within 20%.”

SMILES strings stand for the structures.

In the case of `COc1ccc2c(c1)CCC(CCc1n[nH]c3cc(C)cc(OC4OC(CO)C(O)C(O)C4O)c13)C2` [Example 8, 2-{3-[2-(6-Methoxy-1,2,3,4-tetrahydro-naphthalen-2-yl)-ethyl]-6-methyl-1H-indazol-4-yloxy}-β-D-glucopyranoside], the “CHOK-SGLT1 % Inh (10 uM)” value at human SGLT1 was “inactive”. The inhibition at 10 µM at human SGLT2 was 67%.

For the compound `COc1ccc(Cc2n[nH]c3cc(C)cc(O[C@@H]4O[C@H](CO)[C@@H](O)[C@H](O)[C@H]4O)c23)cc1` [Example 21, 2-[3-(4-Methoxy-benzyl)-6-methyl-1H-indazol-4-yloxy]-β-D-glucopyranoside], the “CHOK-SGLT1 % Inh (10 uM)” value on human SGLT1 was “inactive”. Further, the IC50 (commonly the concentration that gives 50% inhibition) at human SGLT2 is 0.959 ± 0.118 µM.

For `Cc1cc(OC2OC(CO)C(O)C(O)C2O)c2c(CCc3ccc(Cl)cc3)n[nH]c2c1` [Example 11, 2-{3-[2-(4-Chloro-phenyl)-ethyl]-6-methyl-1H-indazol-4-yloxy}-β-D-glucopyranoside], the inhibition at 10 µM was 12% on human SGLT1 and 66% on human SGLT2. Consider `COC1CCc2cc(CCc3n[nH]c4cc(C)cc(OC5OC(CO)C(O)C(O)C5O)c34)ccc2C1` [Example 7, 2-{3-[2-(6-Methoxy-5,6,7,8-tetrahydro-naphthalen-2-yl)-ethyl]-6-methyl-1H-indazol-4-yloxy}β-D-glucopyranoside], for which, at human SGLT1, the “CHOK-SGLT1 % Inh (10 uM)” value was “inactive”. Further, the inhibition at 10 µM on human SGLT2 was 43%. With `Cc1cc(OC2OC(CO)C(O)C(O)C2O)c2c(CCc3ccc(NS(C)(=O)=O)cc3)n[nH]c2c1` [Example 16, 2-{3-[2-(4-Methanesulfonylamino-phenyl)-ethyl]-6-methyl-1H-indazol-4-yloxy}β-D-glucopyranoside], the “CHOK-SGLT1 % Inh (10 uM)” value on human SGLT1 was “inactive”. Also, the inhibition at 10 µM at human SGLT2 amounted to 42%.

On to `CC(=O)OC[C@H]1O[C@@H](Oc2cc(C)cc3[nH]nc(CCc4ccc5occc5c4)c23)[C@H](O)[C@@H](O)[C@@H]1O` [Example 14, 2-[3-(2-Benzofuran-5-yl-ethyl)-6-methyl-1H-indazol-4-yloxy]-6-O-acetyl-β-D-glucopyranoside], for which the inhibition at 10 µM on human SGLT1 is 42%. Further, the concentration for half-maximal inhibition (IC50) on human SGLT2 turned out to be 1.5 ± 0.071 µM. Take `Cc1cc(OC2OC(CO)C(O)C(O)C2O)c2c(CCc3ccc4c(c3)CCO4)nn(C)c2c1` [Example 15, 2-{3-[2-(2,3-Dihydro-benzofuran-5-yl)-ethyl]-1,6-dimethyl-1H-indazol-4-yloxy}-β-D-glucopyranoside]: the inhibition at 10 µM at human SGLT1 turned out to be 47%. In addition, the IC50 on human SGLT2 was 0.754 ± 0.069 µM.

For the compound `CC(=O)OC[C@H]1O[C@@H](Oc2cc(C)cc3[nH]nc(CCc4ccc5c(c4)CCO5)c23)[C@H](O)[C@@H](O)[C@@H]1O` [Example 2, 2-{3-[2-(2,3-Dihydro-benzofuran-5-yl)-ethyl]-6-methyl-1H-indazol-4-yloxy}-6-O— acetyl-β-D-glucopyranoside], the values for the inhibition at 10 µM at human SGLT1 and at human SGLT2 were 14% and 69%, respectively. Take `Cc1cc(OC2OC(CO)C(O)C(O)C2O)c2c(CCc3ccc4ccccc4c3)n[nH]c2c1` [Example 4, 2-[6-Methyl-3-(2-naphthalen-2-yl-ethyl)-1H-indazol-4-yloxy]-β-D-glucopyranoside]: the inhibition at 10 µM at human SGLT1 worked out at 18%. Moreover, the IC50 at human SGLT2 was determined as 1.95 ± 0.816 µM.

Regarding `Cc1cc(OC2OC(CO)C(O)C(O)C2O)c2c(CCc3ccc4c(c3)CCCC4)n[nH]c2c1` [Example 5, 2-{6-Methyl-3-[2-(5,6,7,8-tetrahydro-naphthalen-2-yl)-ethyl]-1H-indazol-4-yloxy}-β-D-glucopyranoside], the “CHOK-SGLT1 % Inh (10 uM)” value at human SGLT1 is “inactive”. On human SGLT2, the IC50 was determined as 3.25 ± 0.461 µM.

On to `Cc1cc(OC2OC(CO)C(O)C(O)C2O)c2c(CCc3ccc(C(F)(F)F)cc3)n[nH]c2c1` [Example 12, 2-{3-[2-(4-Trifluoromethyl-phenyl)-ethyl]-6-methyl-1H-indazol-4-yloxy}β-D-glucopyranoside], for which the “CHOK-SGLT1 % Inh (10 uM)” value at human SGLT1 is “inactive”. Further, on human SGLT2, the inhibition at 10 µM was 36%. As for `CCc1cc(O[C@@H]2O[C@H](CO)[C@@H](O)[C@H](O)[C@H]2O)c2c(CCc3ccc4c(c3)CCO4)n[nH]c2c1` [Example 19, 2-{3-[2-(2,3-Dihydro-benzofuran-5-yl)-ethyl]-6-ethyl-1H-indazol-4-yloxy}-D-glucopyranoside], at human SGLT1, the “CHOK-SGLT1 % Inh (10 uM)” value was “inactive”. In addition, the IC50 at human SGLT2 is 0.532 ± 0.047 µM. Regarding `Cc1cc(O[C@@H]2O[C@H](CO)[C@@H](O)[C@H](O)[C@H]2O)c2c(CCc3ccc4c(c3)CCO4)n[nH]c2c1` [Example 1, 2-{3-[2-(2,3-Dihydro-benzofuran-5-yl)-ethyl]-6-methyl-1H-indazol-4-yloxy}β3-D-glucopyranoside], the inhibition at 10 µM on human SGLT1 is 48%. Besides, at human SGLT2, the IC50 came to 0.458 ± 0.061 µM. With `Cc1cc(O[C@@H]2OC(CO)[C@@H](O)[C@H](O)[C@H]2O)c2c(CCc3ccc4occc4c3)n[nH]c2c1` (stereo partly drawn) [Example 13, 2-[3-(2-Benzofuran-5-yl-ethyl)-6-methyl-1H-indazol-4-yloxy]-β-D-glucopyranoside], the inhibition at 10 µM at human SGLT1 stood at 52%.
